Measurements as given in patent US9655884B2, “Antiparasitic use of isoxazoline compounds” (Intervet Inc., priority 2013, dated 2017).

Tested on: adult fleas (C. felis)
Assay: In vitro membrane feeding exposure to assess flea reproduction
Set-up: species or system Ctenocephalides felis
Conditions: for Effect on hatching of larvae: flea groups able to lay eggs, all concentrations
Description: A membrane feeding method [Wade S E, Georgi J R. Survival and reproduction of artificially fed cat fleas, Ctenocephalides felis Bouché (Siphonaptera: Pulicidae). J Med Entomol 1988, 25: 186-190.] was modified to assess the impact of fluralaner exposure on flea reproduction. Defibrinated sheep blood was prepared in a series of dilutions with fluralaner to obtain concentrations between 50.0 and 0.09 ng/mL. These test solutions were prepared twice and each preparation was tested in duplicate resulting in a total of 4 replicates per concentration, along with a fluralaner negative solvent control (a solvent concentration equivalent to that of the highest concentrated fluralaner test solution) and an untreated control.
Unfed adult fleas (C. felis; 20 males and 20 females) were placed into a plastic unit that was then closed with a gauze lid. A grid inside the plastic unit divided the unit into 2 chambers, an upper chamber for flea feeding and a lower chamber for egg collection. Test or control blood preparations (2 ml) were placed in an artificial membrane closed glass tube that was then placed on the plastic unit as the food source. Feeding units were incubated (38° C. and 60% RH) for 10 days. Test and negative control blood preparations were freshly prepared and exchanged (on days 1, 3, 5, and 8) to permit continuous flea feeding. Fleas were transferred into fresh plastic units on Days 5 and 8 to facilitate egg collection. Collected eggs were mixed with flea nourishment medium and incubated (28° C. and 80% RH) in darkness for 22 (±3) days to enable flea development. Parameters recorded were flea survival, oviposition control, egg hatchability, pupa control, flea-emergence control and reproduction inhibition.

[1] = eggs of parent fleas fed 0.09 ng/mL in blood, exposure day 9
[2] = eggs of parent fleas fed 0.09 ng/mL in blood, exposure day 10
[3] = eggs of parent fleas fed 0.19 ng/mL in blood, exposure day 3
[4] = eggs of parent fleas fed 0.19 ng/mL in blood, exposure day 4
[5] = eggs of parent fleas fed 0.19 ng/mL in blood, exposure day 5
[6] = eggs of parent fleas fed 0.19 ng/mL in blood, exposure day 8
[7] = eggs of parent fleas fed 0.19 ng/mL in blood, exposure day 9
[8] = eggs of parent fleas fed 0.19 ng/mL in blood, exposure day 10
[9] = eggs of parent fleas fed 0.39 ng/mL in blood, exposure day 3
[10] = eggs of parent fleas fed 0.39 ng/mL in blood, exposure day 4
[11] = eggs of parent fleas fed 0.39 ng/mL in blood, exposure day 5
[12] = eggs of parent fleas fed 0.39 ng/mL in blood, exposure day 8
[13] = eggs of parent fleas fed 0.39 ng/mL in blood, exposure day 9
[14] = eggs of parent fleas fed 0.39 ng/mL in blood, exposure day 10
[15] = eggs of parent fleas fed 0.78 ng/mL in blood, exposure day 3
[16] = eggs of parent fleas fed 0.78 ng/mL in blood, exposure day 4
[17] = eggs of parent fleas fed 0.78 ng/mL in blood, exposure day 5
[18] = eggs of parent fleas fed 0.78 ng/mL in blood, exposure day 8
[19] = eggs of parent fleas fed 0.78 ng/mL in blood, exposure day 9
[20] = eggs of parent fleas fed 0.78 ng/mL in blood, exposure day 10
[21] = eggs of parent fleas fed 1.56 ng/mL in blood, exposure day 3
[22] = eggs of parent fleas fed 1.56 ng/mL in blood, exposure day 4
[23] = eggs of parent fleas fed 1.56 ng/mL in blood, exposure day 5
[24] = eggs of parent fleas fed 1.56 ng/mL in blood, exposure day 8
[25] = eggs of parent fleas fed 1.56 ng/mL in blood, exposure day 9
[26] = eggs of parent fleas fed 1.56 ng/mL in blood, exposure day 10
[27] = eggs of parent fleas fed 3.13 ng/mL in blood, exposure day 3
[28] = eggs of parent fleas fed 3.13 ng/mL in blood, exposure day 4
[29] = eggs of parent fleas fed 3.13 ng/mL in blood, exposure day 5
[30] = eggs of parent fleas fed 3.13 ng/mL in blood, exposure day 8
[31] = eggs of parent fleas fed 3.13 ng/mL in blood, exposure day 9
[32] = eggs of parent fleas fed 3.13 ng/mL in blood, exposure day 10
[33] = eggs of parent fleas fed 6.25 ng/mL in blood, exposure day 3
[34] = eggs of parent fleas fed 6.25 ng/mL in blood, exposure day 4
[35] = eggs of parent fleas fed 6.25 ng/mL in blood, exposure day 5
[36] = eggs of parent fleas fed 6.25 ng/mL in blood, exposure day 8
[37] = eggs of parent fleas fed 6.25 ng/mL in blood, exposure day 9
[38] = eggs of parent fleas fed 6.25 ng/mL in blood, exposure day 10
[39] = eggs of parent fleas fed 12.5 ng/mL in blood, exposure day 3
[40] = eggs of parent fleas fed 12.5 ng/mL in blood, exposure day 8
[41] = eggs of parent fleas fed 12.5 ng/mL in blood, exposure day 9

Cc1cc(C2=NOC(c3cc(Cl)cc(Cl)c3)(C(F)(F)F)C2)ccc1C(=O)NCC(=O)NCC(F)(F)F (centres unmarked) [fluralaner, 4-[5-(3,5-Dichlorophenyl)-5-trifluoromethyl-4,5-dihydroisoxazol-3-yl]-2-methyl-N-[(2,2,2-trifluoro-ethylcarbamoyl)-methyl]-benzamide]
Pupal Development Control (eggs of parent fleas fed 0.09 ng/mL in blood, exposure day 8): 0% | Larval Emergence [1]: yes | Pupal Development Control [1]: 5.9% | Larval Emergence [2]: yes | Pupal Development Control [2]: 2.9% | Pupal Development Control (eggs of parent fleas fed 0.19 ng/mL in blood, arithmetic mean of exposure days): 3.1% | Larval Emergence [3]: yes | Pupal Development Control [3]: 8.8% | Larval Emergence [4]: yes | Pupal Development Control [4]: 0.2% | Larval Emergence [5]: yes | Pupal Development Control [5]: 6.8% | Larval Emergence [6]: yes | Pupal Development Control [6]: 0% | Larval Emergence [7]: yes | Pupal Development Control [7]: 2.7% | Larval Emergence [8]: yes | Pupal Development Control [8]: 0% | Pupal Development Control (eggs of parent fleas fed 0.39 ng/mL in blood, arithmetic mean of exposure days): 3.6% | Larval Emergence [9]: yes | Pupal Development Control [9]: 9.8% | Larval Emergence [10]: yes | Pupal Development Control [10]: 0% | Larval Emergence [11]: yes | Pupal Development Control [11]: 1.5% | Larval Emergence [12]: yes | Pupal Development Control [12]: 3.3% | Larval Emergence [13]: yes | Pupal Development Control [13]: 6.3% | Larval Emergence [14]: yes | Pupal Development Control [14]: 0.8% | Pupal Development Control (eggs of parent fleas fed 0.78 ng/mL in blood, arithmetic mean of exposure days): 12.1% | Larval Emergence [15]: yes | Pupal Development Control [15]: 7.5% | Larval Emergence [16]: yes | Pupal Development Control [16]: 11.4% | Larval Emergence [17]: yes | Pupal Development Control [17]: 16.7% | Larval Emergence [18]: yes | Pupal Development Control [18]: 10.8% | Larval Emergence [19]: yes | Pupal Development Control [19]: 11.9% | Larval Emergence [20]: yes | Pupal Development Control [20]: 14.5% | Pupal Development Control (eggs of parent fleas fed 1.56 ng/mL in blood, arithmetic mean of exposure days): 35.1% | Larval Emergence [21]: yes | Pupal Development Control [21]: 35.3% | Larval Emergence [22]: yes | Pupal Development Control [22]: 36.3% | Larval Emergence [23]: yes | Pupal Development Control [23]: 34.6% | Larval Emergence [24]: yes | Pupal Development Control [24]: 35.5% | Larval Emergence [25]: yes | Pupal Development Control [25]: 41.6% | Larval Emergence [26]: yes | Pupal Development Control [26]: 27.2% | Pupal Development Control (eggs of parent fleas fed 3.13 ng/mL in blood, arithmetic mean of exposure days): 64.5% | Larval Emergence [27]: yes | Pupal Development Control [27]: 66.3% | Larval Emergence [28]: yes | Pupal Development Control [28]: 68.9% | Larval Emergence [29]: yes | Pupal Development Control [29]: 61.7% | Larval Emergence [30]: yes | Pupal Development Control [30]: 70.3% | Larval Emergence [31]: yes | Pupal Development Control [31]: 62.1% | Larval Emergence [32]: yes | Pupal Development Control [32]: 57.4% | Pupal Development Control (eggs of parent fleas fed 6.25 ng/mL in blood, arithmetic mean of exposure days): 88.7% | Larval Emergence [33]: yes | Pupal Development Control [33]: 90.2% | Larval Emergence [34]: yes | Pupal Development Control [34]: 92.4% | Larval Emergence [35]: yes | Pupal Development Control [35]: 87.3% | Larval Emergence [36]: yes | Pupal Development Control [36]: 86.4% | Larval Emergence [37]: yes | Pupal Development Control [37]: 89.9% | Larval Emergence [38]: yes | Pupal Development Control [38]: 86.0% | Pupal Development Control (eggs of parent fleas fed 12.5 ng/mL in blood, arithmetic mean of exposure days): 85.1% | Larval Emergence [39]: no | Pupal Development Control [39]: 100% | Larval Emergence [40]: yes | Pupal Development Control [40]: 55.2% | Larval Emergence [41]: yes | Pupal Development Control [41]: 100% | Effect on hatching of larvae: does not affect the hatching of larvae | Effect on hatching of larvae (listed as Fluralaner): did not affect the hatching of larvae | Adult Flea Emergence Control (parent fleas fed 0.09 ng/mL in blood, arithmetic mean of exposure days): 0.3% | Adult Flea Emergence Control (parent fleas fed 0.09 ng/mL in blood, exposure day 3): 1.1% | Adult Flea Emergence Control (parent fleas fed 0.09 ng/mL in blood, exposure day 4): 0.5% | Adult Flea Emergence Control (parent fleas fed 0.09 ng/mL in blood, exposure day 5): 0% | Adult Flea Emergence Control (parent fleas fed 0.09 ng/mL in blood, exposure day 8): 0% | Adult Flea Emergence Control (parent fleas fed 0.09 ng/mL in blood, exposure day 9): 0% | Adult Flea Emergence Control (parent fleas fed 0.09 ng/mL in blood, exposure day 10): 0% | Adult Flea Emergence Control (parent fleas fed 0.19 ng/mL in blood, arithmetic mean of exposure days): 2.2% | Adult Flea Emergence Control (parent fleas fed 0.19 ng/mL in blood, exposure day 3): 4.6% | Adult Flea Emergence Control (parent fleas fed 0.19 ng/mL in blood, exposure day 4): 0% | Adult Flea Emergence Control (parent fleas fed 0.19 ng/mL in blood, exposure day 5): 1.3% | Adult Flea Emergence Control (parent fleas fed 0.19 ng/mL in blood, exposure day 8): 0.8% | Adult Flea Emergence Control (parent fleas fed 0.19 ng/mL in blood, exposure day 9): 6.7% | Adult Flea Emergence Control (parent fleas fed 0.19 ng/mL in blood, exposure day 10): 0% | Adult Flea Emergence Control (parent fleas fed 0.39 ng/mL in blood, arithmetic mean of exposure days): 1.1% | Adult Flea Emergence Control (parent fleas fed 0.39 ng/mL in blood, exposure day 3): 0% | Adult Flea Emergence Control (parent fleas fed 0.39 ng/mL in blood, exposure day 4): 0% | Adult Flea Emergence Control (parent fleas fed 0.39 ng/mL in blood, exposure day 5): 0% | Adult Flea Emergence Control (parent fleas fed 0.39 ng/mL in blood, exposure day 8): 1.6% | Adult Flea Emergence Control (parent fleas fed 0.39 ng/mL in blood, exposure day 9): 5.2% | Adult Flea Emergence Control (parent fleas fed 0.39 ng/mL in blood, exposure day 10): 0% | Adult Flea Emergence Control (parent fleas fed 0.78 ng/mL in blood, arithmetic mean of exposure days): 1.5% | Adult Flea Emergence Control (parent fleas fed 0.78 ng/mL in blood, exposure day 3): 3.8% | Adult Flea Emergence Control (parent fleas fed 0.78 ng/mL in blood, exposure day 4): 0% | Adult Flea Emergence Control (parent fleas fed 0.78 ng/mL in blood, exposure day 5): 0% | Adult Flea Emergence Control (parent fleas fed 0.78 ng/mL in blood, exposure day 8): 3.1% | Adult Flea Emergence Control (parent fleas fed 0.78 ng/mL in blood, exposure day 9): 1.8% | Adult Flea Emergence Control (parent fleas fed 0.78 ng/mL in blood, exposure day 10): 0% | Adult Flea Emergence Control (parent fleas fed 1.56 ng/mL in blood, arithmetic mean of exposure days): 1.7% | Adult Flea Emergence Control (parent fleas fed 1.56 ng/mL in blood, exposure day 3): 0% | Adult Flea Emergence Control (parent fleas fed 1.56 ng/mL in blood, exposure day 4): 0% | Adult Flea Emergence Control (parent fleas fed 1.56 ng/mL in blood, exposure day 5): 0% | Adult Flea Emergence Control (parent fleas fed 1.56 ng/mL in blood, exposure day 8): 10.2% | Adult Flea Emergence Control (parent fleas fed 1.56 ng/mL in blood, exposure day 9): 0% | Adult Flea Emergence Control (parent fleas fed 1.56 ng/mL in blood, exposure day 10): 0% | Adult Flea Emergence Control (parent fleas fed 3.13 ng/mL in blood, arithmetic mean of exposure days): 5.9% | Adult Flea Emergence Control (parent fleas fed 3.13 ng/mL in blood, exposure day 3): 4.4% | Adult Flea Emergence Control (parent fleas fed 3.13 ng/mL in blood, exposure day 4): 11.9% | Adult Flea Emergence Control (parent fleas fed 3.13 ng/mL in blood, exposure day 5): 3.2% | Adult Flea Emergence Control (parent fleas fed 3.13 ng/mL in blood, exposure day 8): 8.6% | Adult Flea Emergence Control (parent fleas fed 3.13 ng/mL in blood, exposure day 9): 7.5% | Adult Flea Emergence Control (parent fleas fed 3.13 ng/mL in blood, exposure day 10): 0% | Adult Flea Emergence Control (parent fleas fed 6.25 ng/mL in blood, arithmetic mean of exposure days): 11.5% | Adult Flea Emergence Control (parent fleas fed 6.25 ng/mL in blood, exposure day 3): 29.2% | Adult Flea Emergence Control (parent fleas fed 6.25 ng/mL in blood, exposure day 4): 0% | Adult Flea Emergence Control (parent fleas fed 6.25 ng/mL in blood, exposure day 5): 0% | Adult Flea Emergence Control (parent fleas fed 6.25 ng/mL in blood, exposure day 8): 9.2% | Adult Flea Emergence Control (parent fleas fed 6.25 ng/mL in blood, exposure day 9): 30.8% | Adult Flea Emergence Control (parent fleas fed 6.25 ng/mL in blood, exposure day 10): 0% | Adult Flea Emergence Control (parent fleas fed 12.5 ng/mL in blood, arithmetic mean of exposure days): 100% | Adult Flea Emergence Control (parent fleas fed 12.5 ng/mL in blood, exposure day 8): 100%
